Reference: patent publication US4216214A, “4-Tert. butyl-3'-chlorodiphenylamine derivatives, their preparation and their application as anti-histaminic drugs” (PRODESIN (Productos Esteve Internacional S.A.), priority 1977, dated 1980)
Values joined by “and” are separate entries in the source; they are usually repeats but may differ in a detail not shown here. Identical values can stand only once.

Key:
[1] = system: "H2" histamine receptor sites; experiment: Gastric anti-secretory action, secretion stimulated by histamine (Ghosh and Schild method); format: in vivo, Sprague-Dawley rats; details: intravenous dose inhibiting by 50% the gastric secretion caused by histamine 2.5 μmoles/kg i.v., rats
Procedure: (§1) Sprague-Dawley rats having a body weight of from 300 to 350 g are used for studying the antagonistic action of the "H2 " histamine receptor sites by the method described by Ghosh and Schild (1958). The gastric secretion is stimulated by intravenous injection of constant doses of histamine (2.5 μmoles/kg) or of carbachol (5 nmoles /kg). The gastric anti-secretory action is then determined by the intravenous dose (in μmole/kg) of derivative which inhibits by 50% the effect caused by the histamine or carbachol (DI-50).

[2] = system: gastric secretion stimulated by carbachol; experiment: Gastric anti-secretory action, secretion stimulated by carbachol (Ghosh and Schild method); format: in vivo, Sprague-Dawley rats; details: Rattus norvegicus; intravenous dose inhibiting by 50% the gastric secretion caused by carbachol 5 nmoles/kg i.v., rats; read-out: DI-50 with carbachol
Procedure: as §1

[3] = system: Ileum of Guinea Pig (agonist Histamine); experiment: Test on isolated organ: contraction by histamine; format: cell-based; details: Cavia porcellus, agonist Histamine 0.05 μ, read-out: Cl-50 of products, Histamine
Procedure: (§2) During this test, the products are added to the bath in an aqueous solution. The interaction of the various products is determined with different […]: Histamine, acetyl choline, serotonine and norepinephrine. The […] are employed in constant doses to produce contractions in the various biological reactants described below in table III.
(§3) The micromolar concentration which inhibits 50% of the response produced by the constant concentration of each agonist (Cl-50) is determined for each derivative.

[4] = system: Ileum of Guinea Pig (agonist Acetyl Choline); experiment: Test on isolated organ: contraction by acetyl choline; format: cell-based; details: Cavia porcellus, agonist Acetyl Choline 0.05 μ, read-out: Cl-50 of products, Acetyl Choline
Procedure: as §2, §3

[5] = system: Uterus of Rat (agonist Seratonine); experiment: Test on isolated organ: contraction by serotonine; format: cell-based; details: agonist Seratonine 0.10 μ, read-out: Cl-50 of products, Seratonine
Procedure: as §2, §3

[6] = system: Deferent of Rat (agonist Norepinephrine); experiment: Test on isolated organ: contraction by norepinephrine; format: cell-based; details: agonist Norepinephrine 1.0 μ, read-out: Cl-50 of products, Norepinephrine
Procedure: as §2, §3

Acute toxicity in mice = details: mouse, in vivo
Procedure: The lethal dose 50 (LD-50) of various derivatives administered orally and intra-peritoneally to mice weighing between 20 and 25 g was determined.

Acute toxicity in rats = details: rat, in vivo; Sprague-Dawley rats 150 to 180 g, oral; read-out: LD-50 by the oral route in rats
Procedure: The acute toxicity was determined by oral means in Sprague-Dawley rats having a body weight of 150 to 180 g. The LD-50 of N-(2-piperidinoethyl)-tertiary-butyl-3'-chlorodiphenylamine hydrochloride by the oral route in rats is above 3500 mg/kg.

[7] = Sub-acute toxicity by oral means with rats; details: rat, in vivo
Procedure: Three batches of Sprague-Dawley rats each consisting of six males and six females were used. N-(2-piperidinoethyl)-4-tertiary-butyl-3'-chlorodiphenylamine hydrochloride was administered orally to the first two batches in doses of 200 mg/kg and 50 mg/kg respectively. The third batch received a zero dose (distilled water) and was thus used as a control.

[8] = ip, mice 20-25 g, intra-peritoneal, read-out: LD-50 i.p.
[9] = mice 20-25 g, oral, read-out: LD-50 Orally

| SMILES | DI-50 with histamine [1] | ED50 [2] | IC50 [3] | IC50 [4] | IC50 [5] | IC50 [6] | LD50 (Acute toxicity in mice; ip, read-out: LD-50 i.p.) | LD50 (Acute toxicity in mice; po, read-out: LD-50 Orally) | LD50 (Acute toxicity in rats) | mortality ([7]; 50 mg/kg) | mortality ([7]; 200 mg/kg) | LD50 (Acute toxicity in mice; [8]) | LD50 (Acute toxicity in mice; [9]) |
| --- | --- | --- | --- | --- | --- | --- | --- | --- | --- | --- | --- | --- | --- |
| CC(C)(C)c1ccc(N(CCN2CCCCC2)c2cccc(Cl)c2)cc1 [Example 1, N-(2-piperidino-ethyl)-4-tertiary butyl-3'-chlorodiphenylamine] | 1.0 µmol/kg | > 20 µmol/kg | 2.25 µM | 25.5 µM | 0.38 µM | 24.5 µM | 1000 mg/kg and 2450 µmol/kg | > 3500 mg/kg and > 8500 µmol/kg | > 3500 mg/kg | 8.33% | 33% |  |  |
| CCN(CC)CCN(c1ccc(C(C)(C)C)cc1)c1cccc(Cl)c1 [Example 3, N(2-diethylaminoethyl)-4-tert.butyl 3'-chlorodiphenylamine] | 6.0 µmol/kg | > 20 µmol/kg | 27.9 µM | 25.3 µM | 2.6 µM | 25 µM |  |  |  |  |  | 395 mg/kg and 1000 µmol/kg | > 6000 mg/kg and > 15000 µmol/kg |
| CC(C)(C)c1ccc(N(CCN2CCCC2)c2cccc(Cl)c2)cc1 [Example 4, N(2-pyrrolidinoethyl)-4-tert.butyl 3'-chlorodiphenylamine] | 2.2 µmol/kg | 20 µmol/kg | 19.8 µM | 25.4 µM | 0.05 µM | 25.4 µM |  |  |  |  |  | 155 mg/kg and 390 µmol/kg | 3000 mg/kg and 7620 µmol/kg |
